Experimental data reported in patent publication US20240317801A1, “PEPTIDOMIMETIC MATRIPTASE 2 INHIBITORS AND USES THEREOF” (Disc Medicine, Inc., priority 2020, published 2024).
pKi: −log10 of the molar value.

The compounds below were run against T1, Human Recombinant Matriptase 2 (Homo sapiens, UniProt Q8IU80) (assay: Matriptase 2 fluorescence-based inhibition assay (Boc-Gln-Ala-Arg-AMC substrate)). Conditions: Ki derived from measured IC50 using Cheng-Prusoff equation; 30 min preincubation, 100 μM substrate, 25° C., pH 7.5; read-out: Mat-2 Ki.
T1 construct: purchased Enzo Life Sciences ALX-201-752-1
T1 sequence (Q8IU80 1-811): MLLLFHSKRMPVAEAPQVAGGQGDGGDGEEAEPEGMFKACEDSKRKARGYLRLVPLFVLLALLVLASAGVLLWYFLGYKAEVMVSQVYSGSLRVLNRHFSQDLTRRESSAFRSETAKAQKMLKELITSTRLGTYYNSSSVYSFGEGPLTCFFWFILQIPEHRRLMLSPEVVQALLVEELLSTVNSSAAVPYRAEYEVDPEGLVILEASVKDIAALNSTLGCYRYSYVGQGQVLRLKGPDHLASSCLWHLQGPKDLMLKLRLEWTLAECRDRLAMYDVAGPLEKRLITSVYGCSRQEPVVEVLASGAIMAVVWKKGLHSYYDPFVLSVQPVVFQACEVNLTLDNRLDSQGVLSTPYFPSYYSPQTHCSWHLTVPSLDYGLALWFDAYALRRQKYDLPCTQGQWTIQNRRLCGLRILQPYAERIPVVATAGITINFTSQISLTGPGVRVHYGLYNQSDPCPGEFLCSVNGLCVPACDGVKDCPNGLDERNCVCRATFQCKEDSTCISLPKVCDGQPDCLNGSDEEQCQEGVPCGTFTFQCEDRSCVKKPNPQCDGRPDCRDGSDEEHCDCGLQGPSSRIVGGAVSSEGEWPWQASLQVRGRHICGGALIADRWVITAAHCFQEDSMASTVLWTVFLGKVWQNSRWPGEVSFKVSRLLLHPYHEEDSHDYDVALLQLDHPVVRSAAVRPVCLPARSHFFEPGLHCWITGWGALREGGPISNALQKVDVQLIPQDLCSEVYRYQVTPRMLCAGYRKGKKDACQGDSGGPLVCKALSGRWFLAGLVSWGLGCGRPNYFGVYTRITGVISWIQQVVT
Format: biochemical
Experimental: Test compounds were evaluated for their potential to inhibit Human Recombinant Matriptase 2 (in-house and commercial protein from Enzo Life Sciences—cat log—ALX-201-752-1) using fluorescence-based assay. The concentration of Recombinant Matriptase 2 and the substrate used in the assay were: 7 nM (commercial) and 15 nM (In-house Matriptase 2) and 100 μM (Boc-Gln-Ala-Arg-7-amido-4-methyl coumarin hydrobromide—Cat log: B4153-Sigma and I-1550 from Bachem) respectively. The assay buffer used comprised 50 mM TRIS pH 7.5, 150 mM NaCl, 0.01% gelatin (G1393 Sigma). The assay was performed by using 384 well black flat bottom plate from Grenier (Cat log: 781076) at 25° C. The enzyme and the test compound were preincubated for 30 mins, and the plate was read at wavelength Ex: 360/Em:480 nm60 mins after substrate addition. The final assay volume of was 20 μl. Stock solution of compounds were initially prepared in DMSO, which were appropriately diluted for screening to determine IC50 determination (final DMSO conc in the assay was 1%). All the measurements were carried out using the Spectramax M5, Molecular devices. The test compounds were screened at 1 and 10 μM concentrations and IC50 was determined for the interested compounds.
Ki is the binding affinity of an inhibitor. Mat-2 Ki as described herein is the binding affinity of an inhibitor such as a compound as described and provided herein to Mat-2. Mat-2 Ki values are derived from the measured IC50. To determine IC50 values, dose-response curves were generated by plotting percentage inhibition as a function of inhibitor concentration and the data was fitted to a sigmoidal non-linear regression equation (variable slope) using Graph Pad Prism software V7. Mat-2 Ki values as described herein were derived from the IC50 using the Cheng-Prusoff equation, which is understood and appreciated by one the skill in the art. The Mat-2 Ki values of tested compounds as described herein are shown in Table A. Accordingly, the compounds can be used to inhibit matriptase 2 and treat diseases and conditions associated with matriptase 2, such as those described herein.
In the case of `C[C@@H](O)[C@H](NC(=O)[C@H](CCc1ccccc1)NC(=O)CCc1ccccc1)C(=O)N[C@@H](CCCNC(=N)N)C(=O)C(=O)N(C)C`, the pKi was at most 6.00. In the case of `CCNC(=O)C(=O)C(CCCNC(=N)N)NC(=O)[C@@H](NC(=O)[C@H](CCc1ccccc1)NC(=O)CCc1ccccc1)[C@@H](C)O` (stereo partly shown), the pKi was at least 7.00. With `CNC(=O)C(O)C(CCCNC(=N)N)NC(=O)[C@@H](NC(=O)[C@H](CCc1ccccc1)NC(=O)CCc1ccccc1)[C@@H](C)O` (stereo partly shown) the pKi was at most 6.00. With `CCOC(=O)CNC(=O)C(=O)C(CCCNC(=N)N)NC(=O)[C@@H](NC(=O)C(CCc1ccccc1)NC(=O)CCc1ccccc1)[C@@H](C)O` (stereo partly shown) the pKi was 6.00 to 7.00. Compound `CC(C)[C@H](NC(=O)[C@H](Cc1cscn1)NC(=O)CCc1ccccc1)C(=O)N[C@@H](CCCNC(=N)N)C(=O)C(=O)NC1CC1` has a pKi of at least 7.00. With `C[C@@H](O)[C@H](NC(=O)[C@H](Cc1cscn1)NC(=O)CCc1ccccc1)C(=O)N[C@@H](CCCNC(=N)N)C(=O)C(=O)NC1CC1` the pKi was at least 7.00. `CO[C@H](C)[C@H](NC(=O)[C@H](CCc1ccccc1)NC(=O)CCc1ccccc1)C(=O)N[C@@H](CCCNC(=N)N)C(=O)C(=O)NC1CC1` gave a pKi of at least 7.00. `C[C@H](O)[C@H](NC(=O)[C@H](CCc1ccccc1)NC(=O)CCc1ccccc1)C(=O)NC(CCCNC(=N)N)C(=O)C(=O)NC1CC1` (stereo partly shown) showed a pKi of at least 7.00. `CCNC(=O)C(=O)C(Cc1cccc(Cl)c1)NC(=O)[C@@H](NC(=O)[C@H](CCc1ccccc1)NC(=O)CCc1ccccc1)[C@@H](C)O` (stereo partly shown) gave a pKi of at most 6.00. `N=C(N)NCCC[C@H](NC(=O)C1(NC(=O)[C@H](CCc2ccccc2)NC(=O)CCc2ccccc2)CCC1)C(=O)C(=O)NC1CC1` was tested, and the pKi was at least 7.00. Work on `CNC(=O)C(=O)[C@H](CCCNC(=N)N)NC(=O)[C@@H](NC(=O)[C@H](CCc1ccccc1)NC(=O)OCc1ccccc1)[C@@H](C)O` yielded a pKi of at least 7.00. With `C[C@@H](O)[C@H](NC(=O)C(CCc1ccccc1)NC(=O)CCc1ccccc1)C(=O)NC(Cc1cccc(CN)c1)C(=O)C(=O)NC1CC1` (stereo partly shown) the pKi was 6.00 to 7.00. For `C[C@@H](O)[C@H](NC(=O)C(CCc1ccccc1)NC(=O)CCc1ccccc1)C(=O)NC(Cc1ccc(N)nc1)C(=O)C(=O)NC1CC1` (stereo partly shown), the pKi was at most 6.00. For `C[C@@H](O)[C@H](NC(=O)[C@H](CCc1ccccc1)NC(=O)CCc1ccccc1)C(=O)N[C@@H](CCCNC(=N)N)C(=O)C(=O)NC1(c2cccnc2)CC1`, the pKi was at least 7.00. In the case of `C[C@H](O)[C@H](NC(=O)[C@H](CCc1ccccc1)NC(=O)CCc1ccccc1)C(=O)NC(CCCNC(=N)N)C(=O)C(=O)NC(C)(C)C` (stereo partly shown), the pKi was at least 7.00. `C[C@@H](O)[C@H](NC(=O)[C@H](Cc1cscn1)NC(=O)OCc1ccccc1)C(=O)N[C@@H](CCCNC(=N)N)C(=O)C(=O)NC(C)(C)C` gave a pKi of at least 7.00. With `CC(C)[C@H](NC(=O)[C@H](Cc1cscn1)NC(=O)OCc1ccccc1)C(=O)N[C@@H](CCCNC(=N)N)C(=O)C(=O)NC(C)(C)C` the pKi was at least 7.00. Compound `C[C@@H](O)[C@H](NC(=O)[C@H](CCc1ccccc1)NC(=O)CCc1ccccc1)C(=O)NC(CCc1nc(N)no1)C(=O)C(=O)NC(C)(C)C` (stereo partly shown) has a pKi of at most 6.00. `C[C@@H](O)[C@H](NC(=O)[C@H](Cc1cscn1)NC(=O)CCc1ccccc1)C(=O)N[C@@H](CCCNC(=N)N)C(=O)C(=O)NC(C)(C)C` was tested, and the pKi was at least 7.00. `CC(C)[C@H](NC(=O)[C@H](Cc1cscn1)NC(=O)CCc1ccccc1)C(=O)N[C@@H](CCCNC(=N)N)C(=O)C(=O)NC(C)(C)C` was tested, and the pKi was at least 7.00. `C[C@@H](O)[C@H](NC(=O)[C@H](Cc1cccnc1)NC(=O)OCc1ccccc1)C(=O)NC(CCCNC(=N)N)C(=O)C(=O)NC(C)(C)C` (stereo partly shown) showed a pKi of at least 7.00. `CO[C@@H]1CC(C(=O)N[C@@H](CCCNC(=N)N)C(=O)C(=O)NC(C)(C)C)N(C(=O)[C@H](Cc2cscn2)NC(=O)OCc2ccccc2)C1` (stereo partly shown) was tested, and the pKi was at least 7.00. Work on `CC(C)(C)NC(=O)C(=O)[C@H](CCCNC(=N)N)NC(=O)C1C[C@@H](O)CN1C(=O)[C@H](Cc1cscn1)NC(=O)OCc1ccccc1` (stereo partly shown) yielded a pKi of at least 7.00. `C[C@H](O)[C@H](NC(=O)[C@H](CCc1ccccc1)NC(=O)OCc1ccccc1)C(=O)N[C@@H](CCCNC(=N)N)C(=O)C(=O)NC(C)(C)C` showed a pKi of at least 7.00. Work on `C[C@H](O)[C@H](NC(=O)[C@H](Cc1cscn1)NC(=O)OCc1ccccc1)C(=O)N[C@@H](CCCNC(=N)N)C(=O)C(=O)NC(C)(C)C` yielded a pKi of at least 7.00.
